Test results as given in publication PMC5053593, “Tetrahydrobiopterin Supplementation: Elevation of Tissue Biopterin Levels Accompanied by a Relative Increase in Dihydrobiopterin in the Blood and the Role of Probenecid-Sensitive Uptake in Scavenging Dihydrobiopterin in the Liver and Kidney of Rats” (PLoS ONE, 2016).
Where a name gives a salt, the structure may show the parent alone. Read-outs that look alike come from different tables or passages of the source.

Experiments:
[1] = rat, in vivo
Text: (§1) In the following sample acquisition, special care to ensure minimal oxidation of BH4 was taken throughout the following procedure. In brief, the abdomen was opened and cannulae were set in place for collecting bile and urine. The blood samples were drawn from the tail vein into a heparin-coated capillary containing a solution of 0.1 M ascorbic acid (less than 5% by volume), and they were then subjected to differential iodine oxidation for BP determination. The urine was collected at intervals from the bladder through an indwelling needle connected to an airtight syringe in which the dead space had been filled with saline containing 50 mM each of ascorbic acid and EDTA (pH 6.8). The urine was immediately mixed with 9 volumes of 10 mM HCl containing 5 mM antioxidant. The aliquots were then subjected to quantitation of BP and creatinine. BP excretion was expressed as BP/creatinine (μmol/mg creatinine) based on the BP concentration (nmol/mL) divided by the time-matched creatinine level (μg/mL). In calculating the cumulative total, the amounts of BP in each fraction were added. Calculations were based on the BP concentration (nmol/mL) multiplied by the respective urine volume (mL) produced between each sampling time point regardless of the creatinine concentration. The bile was also collected from individual rats through a cannula in the bile duct and was immediately subjected to BP determination. The cumulative BP amount was calculated by adding up all samples measured.
(§2) Biopterin was determined essentially according to Fukushima and Nixon and modified as described previously. Animal tissues contain at least 4 chemical species of the reduced biopterin family; BH4-4a-carbinolamine (or 4a-hydroxy-tetrahydrobiopterin), quinonoid dihydrobiopterin and 7,8-dihydrobiopterin as well as BH4. The Fukushima and Nixon method includes tissue homogenization and extraction of pterin compounds followed by measurement of amount of fully oxidized biopterin after differential iodine oxidation under acid and alkaline conditions. With their method, the biopterin quantity remaining after the acid-oxidation was taken as the total biopterin (BP = “BH4” + “BH2” + “oxidized biopterin”) and that which remained after the alkaline-oxidation, as 7,8-dihydrobiopterin (BH2) plus oxidized biopterin. […] Accordingly, in this study, the biopterin amount measured after the acid iodine oxidation was taken as the sum of “BH4” and “BH2” (“BP” = “BH2” + “BH4”), and that after the alkaline oxidation, as the amount of “BH2”. The difference was therefore taken as the “BH4” amount. The BH4 fraction (BH4%; the percentage of BH4 in BP) was calculated for each individual sample. The amounts of BH4 and BH2 were calculated based on molecular weights of 241 g/mol and 239 g/mol, respectively.
The urinary creatinine concentration was measured using a creatininase-HMMPS method according to the manufacturer’s instructions (L-type Creatinine M; Wako Pure Chemical Industries, Osaka, Japan).
Data were expressed as means ±S.E. The statistical significance of two groups with non-repeated determination was analyzed by Student’s t-test. The significance of difference between determinations at different times with individual animal groups was analyzed by the Paired t-test. Significance of difference between three groups was analyzed by Tukey’s test. All the statistical analyses were performed with Pharmaco Basic Ver.15.0.1 (Scientist Co. Ltd., Tokyo). Using results of pterin kinetics, exponential least square approximation was performed with Excel software using Microsoft Office for Mac.

[2] = both, Sprague-Dawley, rat, in vivo
Text: as §1
Biopterin was determined essentially according to Fukushima and Nixon and modified as described previously. […] With their method, the biopterin quantity remaining after the acid-oxidation was taken as the total biopterin (BP = “BH4” + “BH2” + “oxidized biopterin”) and that which remained after the alkaline-oxidation, as 7,8-dihydrobiopterin (BH2) plus oxidized biopterin. […] Accordingly, in this study, the biopterin amount measured after the acid iodine oxidation was taken as the sum of “BH4” and “BH2” (“BP” = “BH2” + “BH4”), and that after the alkaline oxidation, as the amount of “BH2”. […] The BH4 fraction (BH4%; the percentage of BH4 in BP) was calculated for each individual sample. The amounts of BH4 and BH2 were calculated based on molecular weights of 241 g/mol and 239 g/mol, respectively.
Data were expressed as means ±S.E. The statistical significance of two groups with non-repeated determination was analyzed by Student’s t-test. The significance of difference between determinations at different times with individual animal groups was analyzed by the Paired t-test. Significance of difference between three groups was analyzed by Tukey’s test. […]

[3] = both, Sprague-Dawley, rat, in vivo; remark: listed apart in the source
Protocol: Each blood sample was divided into three portions; one served as a “whole blood” specimen, the second was for the hematocrit determination, and the third was centrifuged (10,000 rpm, 4°C, 5 min) to separate red blood cells (RBCs) from the plasma. The whole blood, plasma, and RBCs were separately subjected to differential iodine oxidation for the BP determination described below. The results were expressed as the amount of BP per unit volume of the original blood sample (plasma + RBC, mL) based on the hematocrit value. The kidneys, liver, and whole brain were removed without prior perfusion, rinsed with saline, blotted, weighed, frozen in liquid nitrogen, and then stored at -80°C until BP determination. BP carryover with the blood was ignored in the liver and kidney. However, for the brain, the BP carryover was estimated using an average blood inclusion of 1.2% (v/w), which was determined by a comparison of the heme content of the blood and brain homogenates based on light absorbance at 415 nm.
as §2

[4] = parameters: method as in PMID 22318121, PMID 22318121; settings: cited from earlier work

## C[C@H](O)[C@H](O)[C@H]1CNc2nc(N)[nH]c(=O)c2N1 [6RBH4, (6R)-L-erythro-5,6,7,8-tetrahydrobiopterin dihydrochloride]
[1]; both, Sprague-Dawley
  Urinary BP outflow: 1840 ± 250 nmol
  Urinary BP outflow as % of gross outflow obtained by 270 min: about 58%
[1]; both, Sprague-Dawley, 30 min
  Urinary BH4%: 95 ± 1%
[1]; both, Sprague-Dawley, 90 min
  Urinary BH4%: 87 ± 2%
[1]; both, Sprague-Dawley, 240 min
  Urinary BH4%: ca. 94%
[1]; iv, 5 mg/kg
  Creatinine-based urinary BP AUC0–270: 731 (μmol/mg Cr)•min
[2]
  Biliary BH4%: ~95%
  Biliary BP outflow fit, rate constant k: 0.007 min⁻¹
  C0: 47.2 µM
  Cumulative excretion of BP in the bile as % of that in the urine: about 3%
[3]; 30 min
  BH4% in blood: 93.9 ±0.6%
  BH4% in kidney: 98.0 ±0.2%
  BP (nmol) per organ: 76.8 nmol
  BP (nmol), sub-total of liver, blood, kidneys, brain: 515 nmol
  Brain BP increase over untreated rats: about 43%
  Kidney BP over the initial value: 58 fold
  Liver BP content: 53.3 nmol/g
  Liver BP over the initial value: 9.1 fold
[3]; 120 min
  BH4% in blood: 96.2 ±0.1%
  BH4% in liver: 98.8 ±0.1%
  BP (nmol) per organ: 39.5 nmol
  BP (nmol), sub-total of liver, blood, kidneys, brain: 325 nmol
[4]
  Urinary BP flow, glomerular filtration rate constant k: 0.013 min⁻¹
  Urinary BP flow, observed gross rate constant k: 0.043 min⁻¹
[4]; gross minus glomerular rate constant
  Urinary BP flow, tubular secretion rate constant k: 0.030 min⁻¹
